How the values were obtained:
[1] = type: in vivo; details: piglets, oral PM 100 mg/kg
Procedure: Neonatal pigs spontaneously delivered from sows were confirmed to be negative for TGEV by RT-qPCR and enzyme-linked immunosorbent assay. For the cytotoxicity and pharmacokinetic parameters of the PM, three piglets were orally administered PM (100 mg/kg), and the serum was collected by venipuncture at 0, 1, 2, 4, 6, 8, 10, 12, 16, and 24 h after oral administration of PM for cytotoxicity assays and pharmacokinetic parameter determination. For antiviral animal experiments, piglets were randomly separated into four groups: the mock group ([3]), TGEV group ([3]), TGEV-PM-therapy group ([3]), and TGEV-PM-prevention group ([3]). For the TGEV group, neonatal pigs were orally administered 1.245 × 10^8 PFU TGEV Miller for 24 h. In addition, piglets in the TGEV-PM therapy group were orally infected with 1.245 × 10^8 PFU TGEV Miller and then treated with PM (100 mg/kg). For the TGEV-PM-prevention group, three neonatal pigs were orally pretreated with PM (100 mg/kg) for 24 h and subsequently inoculated with 1.245 × 10^8 PFU TGEV Miller for 24 h. The body weights of all piglets were recorded, and anal swabs were collected every 12 h. At 24 hpi, all pigs were euthanized, and intestinal tissues were collected for RT-qPCR, western blot, IFA, and pathological examination. All animals were handled in strict accordance with good animal practice according to the Animal Ethics Procedures and Guidelines of the People’s Republic of China, and the study was approved by The Animal Administration and Ethics Committee of Lanzhou Veterinary Research Institute, Chinese Academy of Agricultural Sciences (Permit No. LVRIAEC-2020-030).
Fig. S9. Cytotoxicity assay and t1/2 detection of PM in piglets. (A) The serum of piglets orally administered PM were collected at 1, 2, 4, 6, 8, 10, 12, 16 and 24 hours respectively and AST, CK and CREA level in those sera were measured by biochemical parameters. (B) PM concentrations at indicated times in piglets were determined by ICP-MS. Results are presented as mean ± SD of data from three independent experiments ns, no significant.

PRCV = PRCV infection of porcine intestinal organoids (monolayer, apical-out); type: cell-based, porcine respiratory coronavirus; details: monolayer 24 h; apical-out 1 MOI, 48 h; IFA, RT-qPCR, TCID50, western blot
Procedure: Fig 2 PM restricts TGEV and PRCV infection in porcine intestinal organoids. (A) Intestinal organoids cultured in 96-well plate were incubated with different concentrations of PM for 24 h, which was tested by Cell Counting Kit 8. (B and C) The intestinal organoids monolayer was treated with indicated PM and infected with TGEV Miller (0.1 MOI) for 24 h, which was measured by IFA (B), scale bar: 50 µm, RT-qPCR, TCID50, and western blot (C). (D) Apical-out intestinal organoids were treated with indicated PM and infected TGEV Miller (1 MOI) for 48 h, which was determined by RT-qPCR, TCID50, and western blot. (E and F) The intestinal organoids monolayer was treated with different concentrations of PM and infected with PRCV for 24 h, which was determined by IFA (E), scale bar: 50 µm, RT-qPCR, TCID50, and western blot (F). (G) Apical-out intestinal organoids were treated with indicated PM and infected PRCV (1 MOI) for 48 h, which was detected by RT-qPCR, TCID50, and western blot. Results are presented as mean ± SD of data from three independent experiments. **, P ≤ 0.01; ***, P ≤ 0.001.
Porcine 3D ileum organoids coated with Matrigel for 1 week were dissociated by incubation in 5 mM cold EDTA buffer on a rotating platform for 1 h at 4°C. […]

[2] = type: in vivo; details: piglets, oral PM 100 mg/kg; remark: listed apart in the source
Procedure: Neonatal pigs spontaneously delivered from sows were confirmed to be negative for TGEV by RT-qPCR and enzyme-linked immunosorbent assay. For the cytotoxicity and pharmacokinetic parameters of the PM, three piglets were orally administered PM (100 mg/kg), and the serum was collected by venipuncture at 0, 1, 2, 4, 6, 8, 10, 12, 16, and 24 h after oral administration of PM for cytotoxicity assays and pharmacokinetic parameter determination. For antiviral animal experiments, piglets were randomly separated into four groups: the mock group ([3]), TGEV group ([3]), TGEV-PM-therapy group ([3]), and TGEV-PM-prevention group ([3]). For the TGEV group, neonatal pigs were orally administered 1.245 × 10^8 PFU TGEV Miller for 24 h. In addition, piglets in the TGEV-PM therapy group were orally infected with 1.245 × 10^8 PFU TGEV Miller and then treated with PM (100 mg/kg). […] The body weights of all piglets were recorded, and anal swabs were collected every 12 h. […]
Fig. S9. […] (A) The serum of piglets orally administered PM were collected at 1, 2, 4, 6, 8, 10, 12, 16 and 24 hours respectively and AST, CK and CREA level in those sera were measured by biochemical parameters. (B) PM concentrations at indicated times in piglets were determined by ICP-MS. […]

[K+].[K+].[O]=[Mo](=[O])([O-])[O-] [PM, potassium molybdate]
t1/2 [1]: approximately 12 h
AUC(0-t) ([1]; serum, mean ± SD): 975.253 ± 33.380 µg·h/mL
AUC(0-∞) ([1]; serum, mean ± SD): 1,341.054 ± 21.475 mg/L*h
CLz/F ([1]; serum, mean ± SD): 1.23 ± 0.017 mL/min/kg
Cmax ([1]; serum, mean ± SD): 62.645 ± 0.677 µg/mL
MRT(0-t) ([1]; serum, mean ± SD): 10.735 ± 0.155 h
MRT(0-∞) ([1]; serum, mean ± SD): 19.027 ± 1.388 h
Tmax ([1]; serum, mean ± SD): 7.333 ± 2.309 h
Vz/F ([1]; serum, mean ± SD): 1.267 ± 0.093 L/kg
t1/2z ([1]; serum, mean ± SD): 11.784 ± 0.954 h
PRCV infection in organoid monolayer and apical-out organoids (PRCV): the same phenotypes were found
safety of the dose [2]: safe concentration
aminotransferase (AST), creatine kinase (CK) and creatinine (CERA) levels ([2]; serum at 0-24 h): did not affect

Reference: article PMC11784013, “Potassium molybdate blocks APN-dependent coronavirus entry by degrading receptor via PIK3C3-mediated autophagy” (Journal of Virology, 2024)
